Source: ChEMBL document CHEMBL1201862, “PubChem BioAssay data set” (2004)
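Assay format: 96-well plates, 48-hour exposure. Abbreviation: GI50, concentration required for 50% inhibition of growth.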 Active and inactive are the calls of the source. Rule as the data show it: active = GI50 up to about 1.1 µM and inactive = higher.

What was measured:
Assay in all cases: NCI anticancer screen, dose series, 48 h
SW-620 = system: SW-620
SF-268 = system: SF-268
U-251 = system: U-251
KM12 = system: KM12
LOX IMVI = system: LOX IMVI
UACC-257 = system: UACC-257
SK-MEL-5 = system: SK-MEL-5
SNB-75 = system: SNB-75
NCI-H522 = system: NCI-H522
SF-295 = system: SF-295
SK-MEL-2 = system: SK-MEL-2
SR = system: SR
K562 = system: K562
MOLT-4 = system: MOLT-4
HCT-15 = system: HCT-15
CAKI-1 = system: CAKI-1
HT-29 = system: HT-29
IGROV-1 = system: IGROV-1

| SMILES | GI50 (SW-620) | GI50 (SF-268) | GI50 (U-251) | GI50 (KM12) | GI50 (LOX IMVI) | GI50 (UACC-257) | GI50 (SK-MEL-5) | GI50 (SNB-75) | GI50 (NCI-H522) | GI50 (SF-295) | GI50 (SK-MEL-2) | GI50 (SR) | GI50 (K562) | GI50 (MOLT-4) | GI50 (HCT-15) [µM] | GI50 (CAKI-1) | GI50 (HT-29) | GI50 (IGROV-1) |
| --- | --- | --- | --- | --- | --- | --- | --- | --- | --- | --- | --- | --- | --- | --- | --- | --- | --- | --- |
| c1cc(N(CCn2cccn2)CCn2cccn2)cc(N(CCn2cccn2)CCn2cccn2)c1 | > 100 µM (inactive) | > 100 µM (inactive) | > 100 µM (inactive) | > 100 µM (inactive) | > 100 µM (inactive) | > 100 µM (inactive) | > 100 µM (inactive) | > 100 µM (inactive) | > 100 µM (inactive) | > 100 µM (inactive) | > 100 µM (inactive) | > 100 µM (inactive) | > 100 µM (inactive) | > 100 µM (inactive) | > 100 | > 100 µM (inactive) | – | – |
| CC(=O)O[C@]12CCCCC1C1(O)C(O)CCCCC12 (some centres not stated) | > 100 µM (inactive) | > 100 µM (inactive) | > 100 µM (inactive) | > 100 µM (inactive) | > 100 µM (inactive) | > 100 µM (inactive) | > 100 µM (inactive) | > 100 µM (inactive) | > 100 µM (inactive) | > 100 µM (inactive) | > 100 µM (inactive) | > 100 µM (inactive) | > 100 µM (inactive) | > 100 µM (inactive) | > 100 | – | > 100 µM (inactive) | – |
| Oc1ccncc1-c1cnccc1O | > 100 µM (inactive) | – | > 100 µM (inactive) | > 100 µM (inactive) | > 100 µM (inactive) | > 100 µM (inactive) | > 100 µM (inactive) | > 100 µM (inactive) | > 100 µM (inactive) | > 100 µM (inactive) | – | – | > 100 µM (inactive) | > 100 µM (inactive) | > 100 | > 100 µM (inactive) | > 100 µM (inactive) | > 100 µM (inactive) |
| Cc1cc(C)cc(NC(=O)CCC(=O)C2CCC/C2=N\NC(=O)C(=O)NN)c1 (configuration not stated) | > 100 µM (inactive) | > 100 µM (inactive) | > 100 µM (inactive) | > 100 µM (inactive) | > 100 µM (inactive) | > 100 µM (inactive) | > 100 µM (inactive) | > 100 µM (inactive) | – | > 100 µM (inactive) | > 100 µM (inactive) | – | > 100 µM (inactive) | > 100 µM (inactive) | > 100 | > 100 µM (inactive) | > 100 µM (inactive) | > 100 µM (inactive) |
| N#CC(=C1C=CC(=NO)C=C1)c1ccc(Cl)cc1 | 7.21 µM (inactive) | 11.9 µM (inactive) | 13.6 µM (inactive) | 1.69 µM (inactive) | 3.22 µM (inactive) | – | 7.5 µM (inactive) | 24.3 µM (inactive) | 2.47 µM (inactive) | 16.6 µM (inactive) | 4.36 µM (inactive) | 4.83 µM (inactive) | 3.78 µM (inactive) | 5.74 µM (inactive) | 13.7 | 15.1 µM (inactive) | 5.56 µM (inactive) | 17.1 µM (inactive) |
| CC1(C)CC(N2CCN(C3CC(C)(C)NC(C)(C)C3)CC2)CC(C)(C)N1 | > 100 µM (inactive) | > 100 µM (inactive) | > 100 µM (inactive) | > 100 µM (inactive) | > 100 µM (inactive) | > 100 µM (inactive) | > 100 µM (inactive) | > 100 µM (inactive) | > 100 µM (inactive) | > 100 µM (inactive) | – | > 100 µM (inactive) | > 100 µM (inactive) | > 100 µM (inactive) | > 100 | > 100 µM (inactive) | > 100 µM (inactive) | > 100 µM (inactive) |
| Cc1ccc(S(=O)(=O)c2ccc(C)cc2[N+](=O)[O-])c([N+](=O)[O-])c1 | > 100 µM (inactive) | > 100 µM (inactive) | > 100 µM (inactive) | > 100 µM (inactive) | > 100 µM (inactive) | – | > 100 µM (inactive) | 18.5 µM (inactive) | > 100 µM (inactive) | > 100 µM (inactive) | > 100 µM (inactive) | > 100 µM (inactive) | > 100 µM (inactive) | > 10 µM (inactive) | > 100 | – | > 100 µM (inactive) | > 100 µM (inactive) |
| C#CCN(Cc1ccc2nc(-c3ccccc3)c(N)nc2c1)c1cc(OC)c(OC)c(OC)c1 | 36.5 µM (inactive) | 40.7 µM (inactive) | 37 µM (inactive) | > 10 µM (inactive) | 25.2 µM (inactive) | – | 11.9 µM (inactive) | 30.4 µM (inactive) | 20.9 µM (inactive) | 18.7 µM (inactive) | 23.1 µM (inactive) | 13.9 µM (inactive) | 23.8 µM (inactive) | 12.5 µM (inactive) | 31.9 | – | 23.4 µM (inactive) | 37.1 µM (inactive) |
| C=C(COC(C)=O)CC(OC(C)=O)c1ccccc1 (configuration not stated) | > 100 µM (inactive) | > 100 µM (inactive) | > 100 µM (inactive) | > 100 µM (inactive) | > 100 µM (inactive) | – | > 100 µM (inactive) | > 100 µM (inactive) | > 100 µM (inactive) | > 100 µM (inactive) | > 100 µM (inactive) | – | > 100 µM (inactive) | 52.2 µM (inactive) | > 100 | – | > 100 µM (inactive) | > 100 µM (inactive) |
| COc1cc(/C=N/N=C(\N)NO)c(Cl)cc1O | 77.8 µM (inactive) | 85.1 µM (inactive) | > 100 µM (inactive) | 45.3 µM (inactive) | 32.7 µM (inactive) | > 100 µM (inactive) | 51.5 µM (inactive) | – | 31.4 µM (inactive) | 96.2 µM (inactive) | 71.6 µM (inactive) | – | 83.2 µM (inactive) | > 100 µM (inactive) | 46.5 | 78 µM (inactive) | 44.5 µM (inactive) | > 100 µM (inactive) |
| COc1cc(C2C(Cl)C(=O)N2n2cnc3ccccc3c2=O)ccc1O (configuration not stated) | > 100 µM (inactive) | 76.4 µM (inactive) | 73.1 µM (inactive) | > 100 µM (inactive) | > 100 µM (inactive) | 25.4 µM (inactive) | > 100 µM (inactive) | 26.1 µM (inactive) | 34 µM (inactive) | > 100 µM (inactive) | > 100 µM (inactive) | 83.6 µM (inactive) | – | > 100 µM (inactive) | 87.3 | 70.6 µM (inactive) | > 100 µM (inactive) | 78.2 µM (inactive) |
| O=C1CC(CC(=O)C2CCCCC2=O)C(=O)N1 (configuration not stated) | > 100 µM (inactive) | > 100 µM (inactive) | > 100 µM (inactive) | > 100 µM (inactive) | > 100 µM (inactive) | > 100 µM (inactive) | – | > 100 µM (inactive) | > 100 µM (inactive) | > 100 µM (inactive) | – | > 100 µM (inactive) | > 100 µM (inactive) | – | – | > 100 µM (inactive) | > 100 µM (inactive) | > 100 µM (inactive) |
| [O-][S+]1CSSC1 | 15 µM (inactive) | 26.2 µM (inactive) | 18.7 µM (inactive) | 13.9 µM (inactive) | 2.2 µM (inactive) | 14.8 µM (inactive) | > 10 µM (inactive) | 27.7 µM (inactive) | 11.4 µM (inactive) | 20.7 µM (inactive) | 15.6 µM (inactive) | 9.79 µM (inactive) | 3.07 µM (inactive) | 5.36 µM (inactive) | – | 28.1 µM (inactive) | 7.64 µM (inactive) | 22 µM (inactive) |
| CC1=CC(=O)/C(=C(/C)NCCN(CCN/C(C)=C2\C(=O)C=C(C)OC2=O)CCN/C(C)=C2\C(=O)C=C(C)OC2=O)C(=O)O1 | > 100 µM (inactive) | > 100 µM (inactive) | > 100 µM (inactive) | > 100 µM (inactive) | – | > 100 µM (inactive) | > 100 µM (inactive) | > 100 µM (inactive) | > 100 µM (inactive) | > 100 µM (inactive) | – | > 100 µM (inactive) | > 100 µM (inactive) | > 100 µM (inactive) | > 100 | – | > 100 µM (inactive) | > 100 µM (inactive) |
| C/C(=C\Cc1cc(O)ccc1O)CCc1c(C)cc(O)c(C=O)c1C [PANICEIN B3] | 45.9 µM (inactive) | 15.8 µM (inactive) | 19.5 µM (inactive) | 32.3 µM (inactive) | – | – | 17.4 µM (inactive) | 13.9 µM (inactive) | 10.1 µM (inactive) | 27 µM (inactive) | 23 µM (inactive) | 28.4 µM (inactive) | > 100 µM (inactive) | > 100 µM (inactive) | 27.4 | 22.4 µM (inactive) | 20.4 µM (inactive) | 23.2 µM (inactive) |
| O=[N+]([O-])c1ccc(/C=C/c2csnn2)cc1 | > 100 µM (inactive) | > 100 µM (inactive) | > 100 µM (inactive) | > 100 µM (inactive) | > 100 µM (inactive) | > 100 µM (inactive) | > 100 µM (inactive) | – | > 100 µM (inactive) | > 100 µM (inactive) | > 100 µM (inactive) | – | > 100 µM (inactive) | > 100 µM (inactive) | > 100 | > 100 µM (inactive) | > 100 µM (inactive) | > 100 µM (inactive) |
| O=C(/C=C/c1ccc(Cl)c(Cl)c1)c1ccccc1Cl | 4.91 µM (inactive) | 6.64 µM (inactive) | 5.64 µM (inactive) | 8.13 µM (inactive) | 13.2 µM (inactive) | 14.3 µM (inactive) | 13.7 µM (inactive) | 9.14 µM (inactive) | 11.8 µM (inactive) | 13.7 µM (inactive) | – | 4.42 µM (inactive) | 7.16 µM (inactive) | 27.7 µM (inactive) | 5.45 | 9.89 µM (inactive) | 6.07 µM (inactive) | 9.84 µM (inactive) |
